The results in this text go back to patent publication US20240122179A1, “AUXINIC HERBICIDES AND METHODS OF USE THEREOF” (CORTEVA AGRISCIENCE LLC, priority 2021, published 2024).

Common to all, as to assay: Postemergence herbicide evaluation, percent reduction in plant size vs untreated control, 21 days after treatment
In experiment [1] the test system is Amaranthus rudis (AMATA). The class given is in vivo, Amaranthus rudis (tall water hemp). Particulars: Amaranthus tuberculatus, post-emergence, 504 h, AMATA, postemergence, read-out: Control/Injury; for pest or weed control at 140 g/ha: rate 140 g ae/ha; for pest or weed control at 280 g/ha: rate 280 g ae/ha. How it is done:
(§1) Plants were grown in a soil media composed of 90% by volume Promix BX (Premier Tech Horticulture, Quakertown, PA) and 10% Profile Greens Grade (Profile Products LLC, Buffalo Grove, IL). Promix BX contains approximately 83% Sphagnum Peat Moss, 13% Perlite, 5% vermiculite, and proprietary amounts of limestone, starter fertilizer, and wetting agent. Profile Greens Grade is a sand-sized granule formed from calcining illite and montmorillonite clay. Several seeds of each species were planted in 10 cm square pots and top watered twice daily. Plant material was propagated in a warm greenhouse with temperature ranging from 25 to 28° C. and 50 to 60% relative humidity at the Corteva Global Headquarters (Indianapolis, Indiana, USA). Natural light was supplemented with 1000-watt metal halide overhead lamps with an average illumination of 500 μE m^−2 s^−1 photosynthetic active radiation for 16 consecutive hours each day. Plants were top-watered prior to herbicide application and sub-watered after herbicide application.
(§2) Appropriate amounts of test materials were weighed out into glass vials in their technical form to deliver either 140 or 280 g acid equivalent (ae)/ha. The samples were dissolved in 3 ml of Solvent 1. Solvent 1 is 97% acetone and 3% dimethyl sulfoxide and serves as a general-purpose solvent (GPS) for dissolving technical materials. […] The samples were then diluted to their final concentration using 17 ml of solvent 2 for a total of 20 ml of spray solution. Solvent 2 contains 41.58% GPS, 45.53% water, 11.88% isopropyl alcohol, 0.99% crop oil concentrate and 0.02% Trition X-155 surfactant. All percentages are listed on a volume basis. Dicamba diglycolamine was applied as a formulated herbicide, Clarity™ and diluted with solvent 2 to compare all materials in the same spray solution.
(§3) Herbicide applications were made to 3 to 4 replicates of each plant species at the 2 to 8 leaf stage, depending on the species. Treatments were applied with a research track-sprayer (Generation III Research Sprayer manufactured by DeVries Manufacturing in Hollandale, MN, USA) calibrated to deliver a spray volume of 187 L/ha. The track-sprayer was fitted with an 8003E nozzle from Spray Systems Company (North Avenue and Schmale Road, P.O. Box 7900, Wheaton, IL 60187), and used a spray pressure of 276 kPa pressure and a speed of 3.1 km/h. The nozzle height was 46 cm above the plant canopy. The experimental design used for the trials was a randomized complete block with 3 or 4 replications per treatment. After application, plants were placed on carts according to the randomization and returned to the greenhouse. Plants were sub-watered after treatment with Indianapolis city water or fertilized three times a week with a commercial fertilizer solution (Jack's Professional 15-5-15 4 Ca 2 Mg fertilizer (manufactured by JR PETERS INC., 6656 Grant Way, Allentown, PA 18106; www.jrpeters.com). Percent visual control assessments were made on a scale of 0 to 100% (where 0 was no control and 100 was complete plant death) at 7, 14, and 21 days after treatment.
In conformity with the methods outlined in Example 49, the effect of representative experimental compounds on the growth of Amaranthus rudis (AMATA), common name tall water hemp, was determined at 2 different levels (respectively, 140 and 280 g acid equivalent (ae)/ha) of the experimental actives tested. Plants were treated with one of the compounds, a control plant was not treated. Twenty-one days after treatment, the plants were measured. The data is present as a percent reduction in plant size relative to the untreated control.

Experiment [2] relates to Ambrosia artemisiifolia (AMBEL). The experiment is classed as in vivo, Ambrosia artemisiifolia (common ragweed). Particulars: post-emergence, 504 h, AMBEL, postemergence, read-out: Control/Injury; for pest or weed control at 140 g/ha: rate 140 g ae/ha; for pest or weed control at 280 g/ha: rate 280 g ae/ha. On the procedure:
as §1, §2, §3
In conformity with the methods outlined in Example 49, the effect of representative experimental compounds on the growth of Ambrosia artemisiifolia (AMBEL), (common ragweed), was determined at 2 different levels (respectively, 140 and 280 g acid equivalent (ae)/ha) of the experimental actives tested. Plants were treated with one of the compounds, a control plant was not treated. Twenty-one days after treatment, the plants were measured. The data is present as a percent reduction in plant size relative to the untreated control.

Experiment [3] deals with Kochia scoparia (KCHSC). The experiment is classed as in vivo. Particulars: Bassia scoparia, post-emergence, 504 h, KCHSC, postemergence, read-out: Control/Injury; for pest or weed control at 140 g/ha: rate 140 g ae/ha; for pest or weed control at 280 g/ha: rate 280 g ae/ha. How it is done: as §1, §2, §3
In conformity with the methods outlined in Example 49, the effect of representative experimental compounds on the growth of Kochia scoparia (KCHSC) was determined at 2 different levels (respectively, 140 and 280 g acid equivalent (ae)/ha) of the experimental actives tested. Plants were treated with one of the compounds, a control plant was not treated. Twenty-one days after treatment, the plants were measured. The data is present as a percent reduction in plant size relative to the untreated control.

Experiment [4] deals with Amaranthus palmeri (AMAPA). The experiment is classed as in vivo, Amaranthus palmeri (Palmer amaranth). Particulars: post-emergence, 504 h, postemergence, read-out: Control/Injury; for pest or weed control at 140 g/ha: rate 140 g ae/ha; for pest or weed control at 280 g/ha: rate 280 g ae/ha. On the procedure: as §1, §2, §3
In conformity with the methods outlined in Example 49, the effect of representative experimental compounds on the growth of Amaranthus palmeri (AMAPA), common name, Palmer amaranth, was determined at 2 different levels (respectively, 140 and 280 g acid equivalent (ae)/ha) of the experimental actives tested. Plants were treated with one of the compounds, a control plant was not treated. Twenty-one days after treatment, the plants were measured. The data is present as a percent reduction in plant size relative to the untreated control.

Experiment [5] deals with Conyza canadensis (L.) (ERICA). The class given is in vivo, Conyza canadensis (L.) (Horseweed). Particulars: Erigeron canadensis, post-emergence, 504 h, ERICA, postemergence, read-out: Control/Injury; for pest or weed control at 140 g/ha: rate 140 g ae/ha; for pest or weed control at 280 g/ha: rate 280 g ae/ha. On the procedure:
as §1, §2, §3
In conformity with the methods outlined in Example 49, the effect of representative experimental compounds on the growth of Conyza canadensis (L.), (ERICA), common name, Horseweed, was determined at 2 different levels (respectively, 140 and 280 g acid equivalent (ae)/ha) of the experimental actives tested. Plants were treated with one of the compounds, a control plant was not treated. Twenty-one days after treatment, the plants were measured. The data is present as a percent reduction in plant size relative to the untreated control.

[6] abbreviates: R-AMAPA, percent reduction vs untreated control, 21 days after treatment.
[7] abbreviates: percent reduction vs untreated control, 21 days after treatment.
[8] abbreviates: percent reduction vs untreated, 21 days after treatment.

Like-named read-outs stand apart in the source and are kept apart here.

For `COc1c(Cl)ccc(Cl)c1C(=O)O/N=C/C(C)=O` [Compound A-69], the pest or weed control at 140 g/ha in experiment [1] is 67%; in experiment [2], 80%; in experiment [3] it was 91%; in experiment [4] (setting [6]), 70%; in experiment [5] (setting [7]) it was 88%. Further, the pest or weed control at 280 g/ha in experiment [1] is 80%; in experiment [2], 96%; in experiment [3], 96%; in experiment [4] (setting [6]) it was 80%; in experiment [5] (setting [7]), 91%.

As for `COc1c(Cl)ccc(Cl)c1C(=O)O/N=C/c1ccccc1` [Compound A-70], the pest or weed control at 140 g/ha came out at 52% in experiment [1]; 78% in experiment [2]; 73% in experiment [3]; 72% in experiment [4] (setting [6]); 87% in experiment [5] (setting [7]). The pest or weed control at 280 g/ha in experiment [1] was found to be 77%; in experiment [2], 97%; in experiment [3], 88%; in experiment [4] (setting [6]), 78%; in experiment [5] (setting [7]) it was 93%.

On to `COc1c(Cl)ccc(Cl)c1C(=O)ON(C)C(=O)c1ccccc1` [Compound A-71], for which the pest or weed control at 140 g/ha was 83% in experiment [1]; 83% in experiment [2]; 85% in experiment [3]; 70% in experiment [4] (setting [6]); 85% in experiment [5] (setting [7]). In addition, the pest or weed control at 280 g/ha in experiment [1] stood at 80%; in experiment [2], 93%; in experiment [3], 87%; in experiment [4] (setting [6]), 82%; in experiment [5] (setting [7]), 92%.

For the molecule `COc1c(Cl)ccc(Cl)c1C(=O)ON(Cc1ccccc1)Cc1ccccc1` [Compound A-72], the pest or weed control at 140 g/ha in experiment [1] is 63%; in experiment [2] it was 82%; in experiment [3], 82%; in experiment [4] (setting [6]), 72%; in experiment [5] (setting [7]), 83%. Further, the pest or weed control at 280 g/ha in experiment [1] came out at 74%; in experiment [2], 98%; in experiment [3], 94%; in experiment [4] (setting [6]), 83%; in experiment [5] (setting [7]), 92%.

For the molecule `COc1c(Cl)ccc(Cl)c1C(=O)NOc1ccc([N+](=O)[O-])cc1` [Compound A-97], the pest or weed control at 140 g/ha in experiment [1] was 55%; in experiment [2] it was 73%; in experiment [3] (setting [8]), 73%; in experiment [4] (AMAPA) it was 50%; in experiment [5], 18%; in experiment [5] (setting [7]), 75%. The pest or weed control at 280 g/ha was determined as 68% in experiment [1]; 90% in experiment [2]; 88% in experiment [3] (setting [8]); 65% in experiment [4] (AMAPA); 40% in experiment [5]; 70% in experiment [5] (setting [7]).

With `COc1c(Cl)ccc(Cl)c1C(=O)O/N=C/c1cc(/C=N/OC(=O)c2c(Cl)ccc(Cl)c2OC)cc(/C=N/OC(=O)c2c(Cl)ccc(Cl)c2OC)c1` [Compound A-99], the pest or weed control at 140 g/ha was 84% in experiment [1]; 96% in experiment [2]; 93% in experiment [3] (setting [8]); 90% in experiment [4] (AMAPA); 97% in experiment [5]. The pest or weed control at 280 g/ha in experiment [1] worked out at 78%; in experiment [2] it was 95%; in experiment [3] (setting [8]), 95%; in experiment [4] (AMAPA), 80%; in experiment [5], 99%.

Turning to `COc1c(Cl)ccc(Cl)c1C(=O)NOC1CCCCO1` (stereo not shown) [Compound A-100], the pest or weed control at 140 g/ha was 0% in experiment [1]; 5% in experiment [2]; 0% in experiment [3] (setting [8]); 0% in experiment [4] (AMAPA); 8% in experiment [5]. Also, the pest or weed control at 280 g/ha in experiment [1] worked out at 19%; in experiment [2], 20%; in experiment [3] (setting [8]), 0%; in experiment [4] (AMAPA) it was 15%; in experiment [5] it was 13%.

For `C=CCONC(=O)c1c(Cl)ccc(Cl)c1OC` [Compound A-101], the pest or weed control at 140 g/ha in experiment [1] was 18%; in experiment [2] it was 25%; in experiment [3] (setting [8]) it was 0%; in experiment [4] (AMAPA), 18%; in experiment [5], 0%. Moreover, the pest or weed control at 280 g/ha in experiment [1] amounted to 33%; in experiment [2], 15%; in experiment [3] (setting [8]) it was 0%; in experiment [4] (AMAPA), 13%; in experiment [5] it was 8%.
